According to patent publication US20240239806A1, “COMPOUNDS, COMPOSITIONS AND METHODS OF TREATING DISORDERS” (Chengdu Anticancer Bioscience, Ltd., priority 2021, published 2024):
Like-named read-outs stand apart in the source and are kept apart here.

Tests used:
RPEMYC^H2B-GFP cells = experiment: Phenotypic screening assay (mitotic arrest, polyploidy); format: cell-based; settings: 1 nM to 30 μM; for IC50: read-out: Proliferative arrest (>50%)
Outline: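 RPE cells expressing MYC and H2B-EGFP treated with compound at 1 nM–30 μM; mitotic index scored at 24 h and polyploidy (DNA content) at 48 h by automated imaging, with reads at 24, 48 or 72 h. Hits show transient mitotic arrest followed by polyploid accumulation.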

HCT116 [1] = experiment: MECP in cancer cell line; format: cell-based; settings: Homo sapiens, HCT-116
Protocol: (§1) Six lung cancer cell lines (NCI-H23, NCI-H460, NCI-H596, NCI-H2170, Calu-6 and A549), two colon cancer cell lines (HCT116 and SW460), one breast cancer cell line MDA-MB-231, one gastric cancer cell line NCI-N87, one prostate cancer cell line DU145, one cervical cancer cell line Hela, and one glioblastoma cell line T98G were obtained from ATCC. The T2 HCC cell line was derived from a mouse liver cancer model initiated by a transgene of MYC. All cell lines were cultured in DMEM (Gibco, Cleveland, TN, USA) supplemented with 5% fetal bovine serum (Gibco), penicillin (100 U/mL)—streptomycin (100 μg/mL) (Gibco, Cat. No. 15140-122), 2 mM L-glutamine (Gibco, 200 mM solution, Cat. No. 25030081), and 1 mM sodium pyruvate (Gibco, 100 mM solution, Cat. No. 11360070) at 37° C. in a humidified incubator that was maintained at 5% CO2.
(§2) We have previously developed a mechanism-informed phenotypic screening assay to identify novel antimitotic agents. Equipped with a prior understanding of the versatile functions of the chromosomal passenger protein (CPP) complex in orchestrating karyokinesis and cytokinesis, the screening assay is to score for phenotypes typically seen when the CPP complex is disabled. Specifically, the parameters for a positive hit are a temporary elevation of mitotic index (MI) at 24 hours of drug treatment and an accumulation of polyploid cells at 48 hours of drug treatment, indicative of mitotic arrest and cytokinetic failure respectively. These parameters exclude compounds that elicit only a prolonged arrest of cells in mitosis, a phenotype typically provoked by spindle toxins. The screening procedure is briefly summarized here. RPEMYC^H2B-GFP cells engineered to express a Histone 2B-EGFP fusion protein were passaged as batches of 96-well plates, 18-24 hours before exposure to the chemical compounds of the present disclosure at concentrations from 1 nM to 30 μM. At 24, 48 or 72 hours after initiation of treatment, cells were analyzed for either an arrest in mitosis or a change in DNA content by GE IN-Cell Analyzer 2000. As set forth in Table 2 below, a value of greater than or equal to 1 nM and less than or equal to 1.0 μM is marked “A”; a value greater than 1.00 μM and less than or equal to 10.0 μM is marked “B”; a value greater than 10.0 μM and less than or equal to 30.0 μM is marked “C”; and a value greater than 30.0 μM is marked “D.”

Hela [2] = experiment: MECP in cancer cell line; format: cell-based; settings: Homo sapiens
Protocol: as §1, §2

MDA-MB-231 [3] = experiment: MECP in cancer cell line; format: cell-based; settings: Homo sapiens
Protocol: as §1, §2

NCI-H460 [4] = experiment: MECP in cancer cell line; format: cell-based; settings: Homo sapiens
Protocol: as §1, §2

NCI-H596 [5] = experiment: MECP in cancer cell line; format: cell-based; settings: Homo sapiens
Protocol: as §1, §2

T2 HCC [6] = experiment: MECP in cancer cell line; format: cell-based; settings: Mus musculus
Protocol: as §1, §2

T98G [7] = experiment: MECP in cancer cell line; format: cell-based; settings: Homo sapiens
Protocol: as §1, §2

NCI-H23 [8] = experiment: MECP in cancer cell line; format: cell-based; settings: Homo sapiens
Protocol: as §1, with “CO2. […]” for “CO2.”

HCT116 [9] = experiment: MTT assay of cellular proliferation; format: cell-based; settings: Homo sapiens, HCT-116, 50% inhibition of cellular proliferation
Protocol: as §1
(§3) The MTT assay measures cellular metabolic activity as a proxy for cell viability and involves the conversion of the water-soluble yellow dye MTT [3-(4,5-dimethylthiazol-2-yl)-2,5-diphenyltetrazolium bromide] into an insoluble purple formazan by the action of mitochondrial reductase. Formazan is then solubilized and its concentration is determined by measuring the optical density (OD) value at a wavelength of 570 nm. The value is in proportional to the number of live cells with excellent linearity up to ˜10^6 cells per well. The MTT assay was used to determine the EC50 value, the concentration of a compound that leads to 50% inhibition of cellular proliferation. Briefly, cells were split when growing to the mid-Log phase. Cells in 100 μL of culture medium were seeded into each well of 96-well microplates and cultivated for 15-24 hours to reach a confluence of 20-30% and were then exposed to drugs at concentrations ranging from 1 nM to 30 μM. At the endpoint, 20 μL of a MTT stock solution in DMSO (5 mg/mL) was added to each well that contains 100 μL of DMEM. The microplates were left in the cell culture incubator for 3-4 h before subjected to solubilization and determination of formazan at A570 in a microplate reader (BioTek ELX808iu). […] Therefore, these compounds might hold a broad utility in the treatment of a large variety of human malignancies.

Hela [10] = experiment: MTT assay of cellular proliferation; format: cell-based; settings: Homo sapiens, 50% inhibition of cellular proliferation
Protocol: as §1, §3

MDA-MB-231 [11] = experiment: MTT assay of cellular proliferation; format: cell-based; settings: Homo sapiens; MDA-MB-231, MTT, 50% inhibition of cellular proliferation
Protocol: as §1, §3

NCI-H23 [12] = experiment: MTT assay of cellular proliferation; format: cell-based; settings: Homo sapiens, 50% inhibition of cellular proliferation
Protocol: as §1, §3

NCI-H460 [13] = experiment: MTT assay of cellular proliferation; format: cell-based; settings: Homo sapiens, 50% inhibition of cellular proliferation
Protocol: as §1, §3

NCI-H596 [14] = experiment: MTT assay of cellular proliferation; format: cell-based; settings: Homo sapiens, 50% inhibition of cellular proliferation
Protocol: as §1, §3

T2 HCC [15] = experiment: MTT assay of cellular proliferation; format: cell-based; settings: Mus musculus, 50% inhibition of cellular proliferation
Protocol: as §1, §3

T98G [16] = experiment: MTT assay of cellular proliferation; format: cell-based; settings: Homo sapiens, 50% inhibition of cellular proliferation
Protocol: as §1, §3

[17] = tested on: cervical cancer cell line Hela; experiment: Soft agar colony formation assay; format: cell-based, human
Excerpt: (§4) Measuring the ability of cells to grow in soft agar has been popularly believed as the gold standard assay for cellular transformation in vitro. In the Soft Agar Assay, cells grow from single cells to cell colonies in a semi-solid agar solution that keeps them away from the solid surface and allows growth in an anchorage-independent way.
(§5) The anchorage-independent growth of cells is one of the hallmarks of cancer cells. Normal epithelial cells are supported by basement membranes that provide survival and proliferative signals while undergo a type of apoptosis called anoikis when lose their attachment to the extracellular matrix. Cancer cells, in contrast, evade detachment-induced apoptosis, leading to uncontrolled proliferation and metastasis. The Soft Agar Colony Formation Assay allows testing of the therapeutic efficacy of compounds against anchorage-independent 3D growth of cancer cells in vin. The assay was performed in 6-well plates with two layers of agar. For the first, 0.75% agar in DMEM medium was melted in a microwave oven and poured to form a bottom layer. Once solidified, 10-100K cells in 1 ml of DMEM containing 0.35% agar was added to form the top layer, which was later covered with 0.5 ml of DMEM. Cell culture medium was changed once every two days until colonies were ready to photograph. We test the antitumor activity of select compounds in soft agar colony formation assays. […] The suppression of growth of these three cancer cell lines in 3D culture is consistent with the potent impact of these compounds on cellular proliferation in 2D culture.

Human Cancer Cells = experiment: Anchorage-independent growth in 3D culture (FIG. 3); format: cell-based; settings: FIG. 3 legend, cell line not named
Excerpt: as §4, §5

A549 [18] = experiment: MECP in cancer cell line; format: cell-based; settings: Homo sapiens
Protocol: as §1, §2

SW480 [19] = experiment: MECP in cancer cell line; format: cell-based; settings: Homo sapiens
Protocol: as §1, §2

NCI-N87 [20] = experiment: MECP in cancer cell line; format: cell-based; settings: Homo sapiens
Protocol: as §1, with “CO2. […]” for “CO2.”

A549 [21] = experiment: MTT assay of cellular proliferation; format: cell-based; settings: Homo sapiens, 50% inhibition of cellular proliferation
Protocol: as §1, §3

NCI-N87 [22] = experiment: MTT assay of cellular proliferation; format: cell-based; settings: Homo sapiens, 50% inhibition of cellular proliferation
Protocol: as §1, §3

SW480 [23] = experiment: MTT assay of cellular proliferation; format: cell-based; settings: Homo sapiens, 50% inhibition of cellular proliferation
Protocol: as §1, §3

[24] = read-out: Min. Effective conc. for Polyploidy (≥5%)

Row | SMILES | minimal effective concentration (RPEMYC^H2B-GFP cells; [24]) | minimal effective concentration (RPEMYC^H2B-GFP cells; read-out: Mitotic Arrest (≥5%)) | IC50 (RPEMYC^H2B-GFP cells) | minimal effective concentration (HCT116 [1]) | minimal effective concentration (Hela [2]) | minimal effective concentration (MDA-MB-231 [3]) | minimal effective concentration (T2 HCC [6]) | minimal effective concentration (NCI-H23 [8]) | EC50 (HCT116 [9]) | EC50 (Hela [10]) | EC50 (MDA-MB-231 [11]) | EC50 (NCI-H23 [12]) | EC50 (T2 HCC [15]) | also measured
1 | COC(=O)c1cc(Oc2ccnc3ccccc23)cc(C(=O)OC)c1 [Compound 15, dimethyl 5-(quinolin-4-yloxy)isophthalate] | 0.001 to 1 µM | 0.001 to 1 µM | 1 to 1000 nM | 0.001 to 1 µM | 0.001 to 1 µM | 0.001 to 1 µM | 0.001 to 1 µM | 0.001 to 1 µM | 1 to 1000 nM | 1 to 1000 nM | 1 to 1000 nM | 1 to 1000 nM | 1 to 1000 nM | minimal effective concentration (NCI-H460 [4]): 1 to 10 µM; minimal effective concentration (NCI-H596 [5]): 0.001 to 1 µM; minimal effective concentration (T98G [7]): 1 to 10 µM; EC50 (NCI-H460 [13]): > 30000 nM; EC50 (NCI-H596 [14]): 1000 to 10000 nM; EC50 (T98G [16]): 1000 to 10000 nM; anchorage-independent growth in soft agar [17]: effectively suppressed the anchorage-independent growth; Anchorage-independent Growth of Human Cancer Cells in 3D Culture (Human Cancer Cells): Suppress the Anchorage-independent Growth
2 | COc1cc(Oc2ccnc3ccc(OC)cc23)cc(-n2cccn2)c1 [Compound 17, 6-methoxy-4(3-methoxy-5-(1H-pyrazol-1-yl)phenoxy)quinoline] | 0.001 to 1 µM | 0.001 to 1 µM | 1 to 1000 nM | 0.001 to 1 µM | 0.001 to 1 µM | 0.001 to 1 µM | 0.001 to 1 µM | 0.001 to 1 µM | 1 to 1000 nM | 1 to 1000 nM | 1 to 1000 nM | 1 to 1000 nM | 1 to 1000 nM | Min. Effective conc. for Polyploidy (≥5%) (RPEMYC^H2B-GFP cells): B (a value greater than 1.00 μM and less than or equal to 10.0 μM); Mitotic Arrest (≥5%) (RPEMYC^H2B-GFP cells): B (a value greater than 1.00 μM and less than or equal to 10.0 μM); Proliferative arrest (>50%) (RPEMYC^H2B-GFP cells): B (a value greater than 1.00 μM and less than or equal to 10.0 μM); Along with Cell Death (RPEMYC^H2B-GFP cells; listed as 16): B (a value greater than 1.00 μM and less than or equal to 10.0 μM); minimal effective concentration (A549 [18]): 0.001 to 1 µM; minimal effective concentration (SW480 [19]): 0.001 to 1 µM; minimal effective concentration (NCI-N87 [20]): 0.001 to 1 µM; EC50 (A549 [21]): 1 to 1000 nM; EC50 (NCI-N87 [22]): 1 to 1000 nM; EC50 (SW480 [23]): 1 to 1000 nM
